Reference: article PMC4157579, “Lysine Acetylation Controls Local Protein Conformation by Influencing Proline Isomerization” (Molecular Cell, 2014)
Ends that are not written are not given here. * marks the point of attachment. pNA = O=[N+]([O-])c1ccc(N*)cc1

Tested on: chymotrypsin
Test: Chymotrypsin-coupled proline isomerization assay (pNA release)
Format: biochemical
Conditions: 10 μl of 7.8 mM pNA peptide per 1 ml, 395 nm, every 0.6 s for 20 s, first 0.6–10.2 s, mean initial rate, n = 4–5
Source text: Figure 6 K14ac Promotes P16trans (A) Relative binding ± SEM (n = 2–11) assessed by surface plasmon resonance of purified recombinant Spt7 bromodomain (residues 363–619) to the indicated H3 peptides (11–26). (B) Coomassie-stained gel showing a pull-down experiment, quantified relative to the K18ac peptide, with the indicated H3 peptides and the purified recombinant Spt7 bromodomain (n = 3). (C) A chymotrypsin-coupled assay for proline isomers using synthetic hexamers based on GGKAPF-pNA (unmodified). pNA is released by chymotrypsin cleavage only from the trans-proline-containing peptide. (D) K14ac and substitutions at K14 influence isomerization at A15-P16 and pNA release, expressed as mean initial rate ± SEM (n = 4–5) over the first 0.6–10.2 s of the reaction. (E) Schematic showing how K14ac or the K14R substitution influence A15-P16 conformation. […]
Saccharomyces cerevisiae strains used in this study are shown in Supplemental Experimental Procedures. […] Quantitation was performed using ImageJ software. […] The P16 proline isomerase assay was performed as described ([Shan et al., 1994]) using 10 μl of 7.8 mM pNA peptide (Proteogenix) solution per 1 ml assay reaction and pNA release monitored at 395 nm. […] Sensorgrams, binding curves, and Kd values were analyzed with BIA T100 and T200 evaluation software (GE Healthcare) using a 1:1 binding model. […]

GGKAPF-pNA [unmodified peptide]
Initial rate of cleavage (pNA release): comparable to that reported previously in a similar assay
